The results in this text go back to the NIST ThermoML archive (doi:10.1021/je500420g).

This series in a line: xn = mol fraction of the nth substance listed. The settings on record: 100 kPa, Liquid, Vibrating tube method.

Numbers after ± are expanded uncertainties.

In the case of `[I-].[Rb+]` [rubidium iodide (RbI)] + O, the mass density reads like this: (293.15 K, x1 = 0.01) 1088.1 ± 0.2 kg/m3; (293.15 K, x1 = 0.03) 1259.7 ± 0.4 kg/m3; (293.15 K, x1 = 0.05) 1423.2 ± 0.5 kg/m3; (303.15 K, x1 = 0.01) 1084.2 ± 0.2 kg/m3; (303.15 K, x1 = 0.03) 1254.2 ± 0.4 kg/m3; (303.15 K, x1 = 0.05) 1416.3 ± 0.5 kg/m3. The mass density is given as 1079.8 ± 0.2 kg/m3 (313.15 K, x1 = 0.01); 1248.4 ± 0.4 kg/m3 (313.15 K, x1 = 0.03); 1409.2 ± 0.5 kg/m3 (313.15 K, x1 = 0.05); 1074.9 ± 0.3 kg/m3 (323.15 K, x1 = 0.01); 1242.3 ± 0.4 kg/m3 (323.15 K, x1 = 0.03); 1402 ± 0.5 kg/m3 (323.15 K, x1 = 0.05). For the same compound, the mass density runs as follows: (333.15 K, x1 = 0.01) 1069.6 ± 0.3 kg/m3; (333.15 K, x1 = 0.03) 1235.9 ± 0.4 kg/m3; (333.15 K, x1 = 0.05) 1394.6 ± 0.5 kg/m3.
For the compound `[Br-].[Na+]` [sodium bromide] + O, the mass density was determined as 1043.6 ± 0.2 kg/m3 (293.15 K, x1 = 0.01); 1129.5 ± 0.3 kg/m3 (293.15 K, x1 = 0.03); 1217.1 ± 0.3 kg/m3 (293.15 K, x1 = 0.05); 1040 ± 0.2 kg/m3 (303.15 K, x1 = 0.01); 1125.2 ± 0.3 kg/m3 (303.15 K, x1 = 0.03); 1211.8 ± 0.3 kg/m3 (303.15 K, x1 = 0.05). Moreover, the mass density runs as follows: (313.15 K, x1 = 0.01) 1035.8 ± 0.2 kg/m3; (313.15 K, x1 = 0.03) 1120.4 ± 0.3 kg/m3; (313.15 K, x1 = 0.05) 1206.2 ± 0.3 kg/m3; (323.15 K, x1 = 0.01) 1031.1 ± 0.2 kg/m3; (323.15 K, x1 = 0.03) 1115.1 ± 0.3 kg/m3; (323.15 K, x1 = 0.05) 1200.2 ± 0.3 kg/m3. Besides, the mass density is 1026 ± 0.2 kg/m3 (333.15 K, x1 = 0.01); 1109.4 ± 0.3 kg/m3 (333.15 K, x1 = 0.03); 1194 ± 0.3 kg/m3 (333.15 K, x1 = 0.05).
For `[Cl-].[Na+]` [sodium chloride] + O, the mass density runs as follows: (293.15 K, x1 = 0.01) 1021.3 ± 0.2 kg/m3; (293.15 K, x1 = 0.03) 1066.2 ± 0.2 kg/m3; (293.15 K, x1 = 0.05) 1110.8 ± 0.3 kg/m3; (303.15 K, x1 = 0.01) 1018.3 ± 0.2 kg/m3; (303.15 K, x1 = 0.03) 1062.4 ± 0.2 kg/m3; (303.15 K, x1 = 0.05) 1106.2 ± 0.3 kg/m3. Moreover, the mass density runs as follows: (313.15 K, x1 = 0.03) 1058 ± 0.2 kg/m3; (313.15 K, x1 = 0.05) 1101.6 ± 0.3 kg/m3; (323.15 K, x1 = 0.01) 1010.1 ± 0.2 kg/m3; (323.15 K, x1 = 0.03) 1052.4 ± 0.2 kg/m3; (323.15 K, x1 = 0.05) 1096.4 ± 0.3 kg/m3; (333.15 K, x1 = 0.01) 1005.1 ± 0.2 kg/m3. For the same compound, the mass density is, setting by setting: (333.15 K, x1 = 0.03) 1047.6 ± 0.2 kg/m3; (333.15 K, x1 = 0.05) 1090.9 ± 0.3 kg/m3.
As to `[F-].[Na+]` [sodium fluoride] + O, the mass density by setting is: (293.15 K, x1 = 0.01) 1022.7 ± 0.2 kg/m3; (303.15 K, x1 = 0.01) 1019.7 ± 0.2 kg/m3; (313.15 K, x1 = 0.01) 1016 ± 0.2 kg/m3; (323.15 K, x1 = 0.01) 1011.5 ± 0.2 kg/m3; (333.15 K, x1 = 0.01) 1006.5 ± 0.2 kg/m3.
Consider `[I-].[Na+]` [sodium iodide] + O, for which the mass density reads like this: (293.15 K, x1 = 0.01) 1061.7 ± 0.2 kg/m3; (293.15 K, x1 = 0.03) 1186.7 ± 0.3 kg/m3; (293.15 K, x1 = 0.05) 1309.5 ± 0.4 kg/m3; (303.15 K, x1 = 0.01) 1058.4 ± 0.2 kg/m3; (303.15 K, x1 = 0.03) 1181.8 ± 0.3 kg/m3; (303.15 K, x1 = 0.05) 1303.2 ± 0.4 kg/m3. The mass density came to 1054.2 ± 0.2 kg/m3 (313.15 K, x1 = 0.01); 1176.3 ± 0.3 kg/m3 (313.15 K, x1 = 0.03); 1296.5 ± 0.4 kg/m3 (313.15 K, x1 = 0.05); 1049.5 ± 0.2 kg/m3 (323.15 K, x1 = 0.01); 1169.1 ± 0.3 kg/m3 (323.15 K, x1 = 0.03); 1289.5 ± 0.4 kg/m3 (323.15 K, x1 = 0.05). In addition, the mass density is on record as 1044.1 ± 0.2 kg/m3 (333.15 K, x1 = 0.01); 1163.4 ± 0.3 kg/m3 (333.15 K, x1 = 0.03); 1282.2 ± 0.4 kg/m3 (333.15 K, x1 = 0.05).
